Source: PubChem BioAssay (NCI)
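48-hour exposure; five concentrations; linearly interpolated endpoints. TGI marks complete inhibition of growth.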

How the values were obtained:
Test in all cases: NCI tumour cell line growth inhibition, 48 h
[1] = system: A498 renal
[2] = system: IGROV1 ovarian
[3] = system: HT29 colon
[4] = system: OVCAR-3 ovarian
[5] = system: OVCAR-5 ovarian
[6] = system: NCI-H226 lung
[7] = system: SNB-19 CNS
[8] = system: UACC-257 melanoma
[9] = system: MDA-MB-231 breast
[10] = system: HCC-2998 colon
[11] = system: CAKI-1 renal
[12] = system: BT-549 breast
[13] = system: MDA-MB-435
[14] = system: SF-268 CNS
[15] = system: HCT-116 colon
[16] = system: A549 NSCLC
[17] = system: SNB-75 CNS
[18] = system: M14 melanoma
[19] = system: HCT-15 colon
[20] = system: HOP-92 NSCLC
[21] = system: NCI-H522 lung
[22] = system: KM12 colon
[23] = system: NCI-H460 lung
[24] = system: HL-60(TB) leukemia
[25] = system: T-47D breast
[26] = system: NCI-H23 lung
[27] = system: LOX IMVI melanoma
[28] = system: NCI/ADR-RES ovarian
[29] = system: UACC-62 melanoma
[30] = system: EKVX NSCLC
[31] = system: HS 578T breast
[32] = system: SK-OV-3 ovarian
[33] = system: TK-10 renal
[34] = system: SK-MEL-5 melanoma
[35] = system: OVCAR-4 ovarian
[36] = system: SK-MEL-28 melanoma
[37] = system: DU-145 prostate
[38] = system: SF-295 CNS
[39] = system: CCRF-CEM leukemia
[40] = system: RXF 393 renal
[41] = system: SW-620 colon
[42] = system: U251 CNS
[43] = system: K-562 leukemia
[44] = system: MOLT-4 leukemia
[45] = system: ACHN renal
[46] = system: MDA-N
[47] = system: PC-3 prostate
[48] = system: MCF7 breast
[49] = system: HOP-62 NSCLC
[50] = system: UO-31 renal
[51] = system: 786-0 renal
[52] = system: SK-MEL-2 melanoma
[53] = system: COLO 205 colon
[54] = system: SN12C renal
[55] = system: MALME-3M melanoma
[56] = system: OVCAR-8 ovarian
[57] = system: SF-539 CNS
[58] = system: RPMI-8226 leukemia
[59] = system: SR leukemia

O=c1[nH]c2ccccc2c(=O)c2cc3ccccc3cc12
TGI [1]: 48.4 µM
TGI [2]: > 100 µM
TGI [3]: > 100 µM
TGI [4]: > 100 µM
TGI [5]: > 100 µM
TGI [6]: 45.8 µM
TGI [7]: 37.3 µM
TGI [8]: > 100 µM
TGI [9]: 22 µM
TGI [10]: > 100 µM
TGI [11]: 45.5 µM
TGI [12]: 45.2 µM
TGI [13]: > 100 µM
TGI [14]: 28.2 µM
TGI [15]: 20.3 µM
TGI [16]: > 100 µM
TGI [17]: 19.4 µM
TGI [18]: > 100 µM
TGI [19]: > 100 µM
TGI [20]: 19.8 µM
TGI [21]: 25.8 µM
TGI [22]: > 100 µM
TGI [23]: 53.6 µM
TGI [24]: > 100 µM
TGI [25]: > 100 µM
TGI [26]: 47.8 µM
TGI [27]: > 100 µM
TGI [28]: > 100 µM
TGI [29]: > 100 µM
TGI [30]: > 100 µM
TGI [31]: 70.9 µM
TGI [32]: 30.6 µM
TGI [33]: 37 µM
TGI [34]: > 100 µM
TGI [35]: > 100 µM
TGI [36]: > 100 µM
TGI [37]: > 100 µM
TGI [38]: 53.9 µM
TGI [39]: > 100 µM
TGI [40]: 56.3 µM
TGI [41]: > 100 µM
TGI [42]: 21.4 µM
TGI [43]: > 100 µM
TGI [44]: > 100 µM
TGI [45]: > 100 µM
TGI [46]: > 100 µM
TGI [47]: > 100 µM
TGI [48]: > 100 µM
TGI [49]: 25.9 µM
TGI [50]: > 100 µM
TGI [51]: 21.9 µM
TGI [52]: > 100 µM
TGI [53]: > 100 µM
TGI [54]: > 100 µM
TGI [55]: > 100 µM
TGI [56]: 37.7 µM
TGI [57]: > 100 µM

CC(=O)OCCn1c(Cc2ccc(Cl)cc2)nn(C(C)=O)c1=O
TGI [1]: > 100 µM
TGI [2]: > 100 µM
TGI [3]: > 100 µM
TGI [4]: > 100 µM
TGI [5]: > 100 µM
TGI [6]: > 100 µM
TGI [7]: > 100 µM
TGI [8]: > 100 µM
TGI [9]: > 100 µM
TGI [10]: > 100 µM
TGI [11]: > 100 µM
TGI [12]: > 100 µM
TGI [13]: > 100 µM
TGI [14]: > 100 µM
TGI [15]: > 100 µM
TGI [16]: > 100 µM
TGI [18]: > 100 µM
TGI [19]: > 100 µM
TGI [20]: > 100 µM
TGI [21]: > 100 µM
TGI [22]: > 100 µM
TGI [23]: > 100 µM
TGI [24]: > 100 µM
TGI [25]: > 100 µM
TGI [26]: > 100 µM
TGI [27]: > 100 µM
TGI [28]: > 100 µM
TGI [29]: > 100 µM
TGI [30]: > 100 µM
TGI [31]: > 100 µM
TGI [32]: > 100 µM
TGI [33]: > 100 µM
TGI [34]: > 100 µM
TGI [35]: > 100 µM
TGI [36]: > 100 µM
TGI [37]: > 100 µM
TGI [38]: > 100 µM
TGI [39]: > 100 µM
TGI [41]: > 100 µM
TGI [42]: > 100 µM
TGI [43]: > 100 µM
TGI [44]: > 100 µM
TGI [45]: > 100 µM
TGI [46]: > 100 µM
TGI [47]: > 100 µM
TGI [48]: > 100 µM
TGI [58]: > 100 µM
TGI [50]: > 100 µM
TGI [51]: > 100 µM
TGI [52]: > 100 µM
TGI [53]: > 100 µM
TGI [54]: > 100 µM
TGI [55]: > 100 µM
TGI [56]: > 100 µM
TGI [57]: > 100 µM

CN(C)CCC(C#N)(c1ccccc1)c1ccccc1
TGI [1]: > 100 µM
TGI [2]: > 100 µM
TGI [3]: > 100 µM
TGI [4]: > 100 µM
TGI [5]: > 100 µM
TGI [6]: > 100 µM
TGI [7]: > 100 µM
TGI [8]: 59.2 µM
TGI [9]: > 100 µM
TGI [10]: 34.1 µM
TGI [11]: > 100 µM
TGI [12]: > 100 µM
TGI [13]: > 100 µM
TGI [14]: > 100 µM
TGI [15]: > 100 µM
TGI [16]: > 100 µM
TGI [17]: > 100 µM
TGI [18]: 50 µM
TGI [19]: > 100 µM
TGI [20]: 66.6 µM
TGI [21]: > 100 µM
TGI [22]: > 100 µM
TGI [23]: > 100 µM
TGI [24]: 65.3 µM
TGI [25]: > 100 µM
TGI [26]: > 100 µM
TGI [28]: > 100 µM
TGI [29]: > 100 µM
TGI [30]: > 100 µM
TGI [31]: > 100 µM
TGI [32]: > 100 µM
TGI [33]: > 100 µM
TGI [34]: 51.1 µM
TGI [35]: > 100 µM
TGI [36]: 58.4 µM
TGI [37]: > 100 µM
TGI [38]: > 100 µM
TGI [40]: > 100 µM
TGI [41]: > 100 µM
TGI [42]: > 100 µM
TGI [43]: 22.6 µM
TGI [45]: > 100 µM
TGI [46]: > 100 µM
TGI [47]: > 100 µM
TGI [48]: > 100 µM
TGI [58]: 80.5 µM
TGI [49]: > 100 µM
TGI [50]: > 100 µM
TGI [51]: > 100 µM
TGI [52]: > 100 µM
TGI [53]: > 100 µM
TGI [54]: > 100 µM
TGI [55]: > 100 µM
TGI [56]: > 100 µM
TGI [57]: > 100 µM

CC(=O)OC(C(=O)NNC(=O)OC(C)(C)C)c1ccccc1 (centres undefined)
TGI [2]: > 100 µM
TGI [3]: > 100 µM
TGI [4]: > 100 µM
TGI [5]: > 100 µM
TGI [6]: > 100 µM
TGI [7]: > 100 µM
TGI [9]: > 100 µM
TGI [10]: > 100 µM
TGI [11]: > 100 µM
TGI [12]: > 100 µM
TGI [13]: > 100 µM
TGI [14]: > 100 µM
TGI [59]: > 100 µM
TGI [16]: > 100 µM
TGI [17]: > 100 µM
TGI [18]: > 100 µM
TGI [19]: > 100 µM
TGI [20]: > 100 µM
TGI [21]: > 100 µM
TGI [22]: > 100 µM
TGI [23]: > 100 µM
TGI [25]: > 100 µM
TGI [26]: > 100 µM
TGI [28]: > 100 µM
TGI [29]: > 100 µM
TGI [30]: > 100 µM
TGI [31]: > 100 µM
TGI [32]: > 100 µM
TGI [33]: > 100 µM
TGI [34]: > 100 µM
TGI [36]: > 100 µM
TGI [37]: > 100 µM
TGI [38]: > 100 µM
TGI [40]: > 100 µM
TGI [41]: > 100 µM
TGI [42]: > 100 µM
TGI [43]: > 100 µM
TGI [44]: > 100 µM
TGI [45]: > 100 µM
TGI [46]: > 100 µM
TGI [47]: > 100 µM
TGI [48]: > 100 µM
TGI [58]: > 100 µM
TGI [49]: > 100 µM
TGI [50]: > 100 µM
TGI [51]: > 100 µM
TGI [52]: > 100 µM
TGI [53]: > 100 µM
TGI [54]: > 100 µM
TGI [55]: > 100 µM
TGI [56]: > 100 µM
TGI [57]: > 100 µM
